The subject of assay [1] is induratio penis plastica at an advanced chronic stage. The experiment in a line: Example 6: oral propionyl L-carnitine versus oral acetyl L-carnitine, each plus intraplaque verapamil. The format is in vivo, human. Here is the method:
20 subjects (mean age 48, range 40-61) with induratio penis plastica at an advanced chronic stage were randomised to two groups of 10 patients each. The first group was submitted to therapy with oral propionyl L-carnitine (PLC) 1×2 g/day 3 months and intraplaque verapamil 10 mg (10 infiltrations, 1 a week), while the second group was submitted to therapy with oral acetyl L-carnitine (ALC) 1×2 g/day for 3 months+intraplaque verapamil 10 mg (10 infiltrations, 1 a week). The variables measured were plaque area by dynamic colour Doppler penile ultrasonography. In view of the limited number of subjects in the sample it was not possible to carry out any analysis of other data; in any event, the size of the plaque is the most important variable when monitoring La Peyronie's disease, since all the other symptoms depend on the extent of the plaque (Belgrano, ibid.).
The results are presented in Table 14, where the data are expressed as mean±standard deviation (S.D.).

In assay [2] the test system is La Peyronie's disease in the early stages. The settings on record: oral treatment; acute and early chronic stages; cited from earlier work.
The subject of assay [3] is chemically induced inflammation of both the skin and the arteries. The settings on record: rats; cited from earlier work.
Assay [4] relates to induratio penis plastica (La Peyronie's disease) at the chronic stage. The experiment in a line: Example 1: oral tamoxifen versus intravenous propionyl L-carnitine, randomised patients. Type of assay: in vivo, human. On the procedure:
(§1) The examples are based on a limited number of patients and therefore the analysis of the results was carried out only with regard to the fundamental characteristics of the disease, namely plaque area in mm^2 (as measured by means of dynamic colour Doppler ultrasonography) and curvature of the artificially erect penis induced by intracavernous injection of 20 μg of prostaglandin E1.
40 subjects (mean age 52, range 44-61) with induratio penis plastica (La Peyronie's disease) at the chronic stage were randomised […] intravenous propionyl L-carnitine 300×2 mg/day for 3 months, and the second group to therapy with oral tamoxifen 20×2 mg/day. The variables measured were plaque area by means of dynamic colour Doppler ultrasonography and penile curvature, which was present in 16 patients per group. […] Intraplaque verapamil was not used in these patients.
The results are presented in Table 1, where the data are expressed as mean±standard deviation (S.D.).

Assay [5] relates to induratio penis plastica in the early chronic stage. The assay can be described thus: Example 2: oral tamoxifen versus intramuscular propionyl L-carnitine, randomised patients. The format is in vivo, human. On the procedure:
as §1
30 subjects (mean age 50, range 42-63) with induratio penis plastica in the early chronic stage were randomised to two groups of 15 patients each. The first group was submitted to therapy with intramuscular propionyl L-carnitine 300×2 mg/day for 3 months, and the second group to therapy with oral tamoxifen 20×2 mg/day. The variables measured were plaque area (in all subjects) and penile curvature, which was present in 12 subjects per group. […] Intraplaque verapamil was not used in these patients.
The results are presented in Table 2, where the data are expressed as mean±standard deviation (S.D.).

In assay [6] the test system is induratio penis plastica in the chronic stage. The experiment in a line: Example 3: intraplaque triamcinolone acetonide versus intraplaque propionyl L-carnitine. The format is in vivo, human. On the procedure:
as §1
In this case […] the study population consisted of 34 patients (mean age 50, range 44-63) with induratio penis plastica in the chronic stage, who presented an irremediable intolerance to intraplaque verapamil.
17 were submitted to intraplaque infiltrations with propionyl L-carnitine 300 mg, 1 infiltration per week for 10 weeks, and 17 to intraplaque infiltrations with triamcinolone acetonide 40 mg (Kenacort® Squibb), 1 infiltration per week for 10 weeks. The variables measured were plaque area in mm^2 by dynamic colour Doppler ultrasonography and the curvature of the artificially erect penis in degrees.
The results are presented in Table 3, where the data are expressed as mean±standard deviation (S.D.).

The test system of assay [7] is advanced La Peyronie's disease. The assay can be described thus: Example 4: randomised double-blind study, intraplaque verapamil plus oral propionyl L-carnitine or tamoxifen. The following applies: curvature, plaque area, I.I.E.F. 15 score, EDV, RI. The format is in vivo, human.
Protocol: The study was conducted according to a randomised double-blind protocol. […] The data were collected 6 months after the end of therapy when the initial history taking and semeiological examination were repeated. […] I.I.E.F. 15 score; • V. Peak systolic velocity (PSV) (cm/sec), end-diastolic velocity (EDV) (cm/sec) and the resistivity index (RI) of the right and left cavernous arteries using dynamic Doppler ultrasonography; • VI. […] Need for penis straightening surgery and/or for straightening and a prosthesis, the results being classified as presence or absence of any such need; • VIII. Side effects classified as presence or absence of side effects.
Setting [8] is: after therapy, oral 1×2 g/day for 3 months + intraplaque verapamil 10 mg (10 infiltrations, 1 a week).
Setting [9] is: after therapy, PLC intravenous 300×2 mg/day, tamoxifen oral 20×2 mg/day, 3 months.
Setting [10] is: before therapy, artificially erect penis, 16 patients per group.
Where [11] appears, read: after therapy, PLC intramuscular 300×2 mg/day, tamoxifen oral 20×2 mg/day, 3 months.
The mark [12] stands for this setting: before therapy, 12 subjects per group.
The mark [13] stands for this setting: after therapy, intraplaque PLC 300 mg or triamcinolone acetonide 40 mg, 1 infiltration per week for 10 weeks.

This is an account of results in US20050038044A1, “Use of propionyl-carnitine or one of its pharmacologically acceptable salts for the preparation of a medicine for the treatment of la peyronie's disease” (priority 2001, published 2005).

Regarding `CC(=O)O[C@H](CC(=O)[O-])C[N+](C)(C)C` [ALC, acetyl L-carnitine, reference compound], the Plaque area in assay [1] (setting [8]) is 11.8 mm^2; in assay [1] (before therapy, mean), 16.3 mm^2. For the same molecule, in assay [2], the “Activity in the treatment of La Peyronie's disease, in words” value is “significantly more active than tamoxifen”. The “Protection against chemically induced inflammation, in words” value (from here on “Protection”) in assay [3] is on record as “not being shared”.
As to `C[N+](C)(C)C[C@H](O)CC(=O)[O-]` [L-carnitine], in assay [3], the “Protection” value was “not being shared”.
On to `CCC(=O)O[C@H](CC(=O)[O-])C[N+](C)(C)C` [PLC, propionyl L-carnitine], for which the Curvature was determined as 20.06 degrees in assay [4] (setting [9]); 25.31 degrees in assay [4] (setting [10]); 13.00 degrees in assay [5] (setting [11]); 17.75 degrees in assay [5] (setting [12]); 14.77 degrees in assay [6] (setting [13]); 20.38 degrees in assay [6] (before therapy). In addition, the Plaque area in assay [4] (setting [9]) worked out at 19.2 mm^2; in assay [4] (before therapy, mean), 25.6 mm^2; in assay [5] (setting [11]), 6.47 mm^2; in assay [5] (before therapy, mean), 11.1 mm^2; in assay [6] (setting [13]) it was 15.47 mm^2; in assay [6] (before therapy, mean), 26.65 mm^2. For the same molecule, the Plaque area in assay [1] (setting [8]) is on record as 7.9 mm^2; in assay [1] (before therapy, mean), 16.4 + mm^2. The “Reduction of plaque area and curvature of the artificially erect penis, in words” value in assay [4] (intravenous PLC compared with oral tamoxifen) and in assay [5] (intramuscular PLC compared with oral tamoxifen) was “significantly greater extent than tamoxifen” throughout. The “Activity on plaque area and curvature, in words” value in assay [6] (intraplaque PLC compared with intraplaque triamcinolone acetonide) was “significantly more active than triamcinolone acetonide”. In addition, the “Activity on the variables characterising the disease, in words” value in assay [7] is “significantly more active than combined tamoxifen and verapamil”. Besides, the “Reduction of plaque area, in words” value in assay [1] (PLC plus intraplaque verapamil compared with ALC plus intraplaque verapamil) is given as “significantly greater extent than acetyl L-carnitine plus intraplaque verapamil”. Moreover, the “Protection” value in assay [3] is “capable of affording protection”.
On to `CC/C(=C(\c1ccccc1)c1ccc(OCCN(C)C)cc1)c1ccccc1` [Tamoxifen, tamoxifen, reference compound], for which the Curvature in assay [4] (setting [9]) is given as 23.06 degrees; in assay [4] (setting [10]), 24.31 degrees; in assay [5] (setting [11]), 16.58 degrees; in assay [5] (setting [12]) it was 18.08 degrees. Besides, the Plaque area in assay [4] (setting [9]) came to 25.2 mm^2; in assay [4] (before therapy, mean), 26.8 mm^2; in assay [5] (setting [11]), 9.07 mm^2; in assay [5] (before therapy, mean), 11.6 mm^2.
`CC1(C)O[C@@H]2C[C@H]3[C@@H]4CCC5=CC(=O)C=C[C@]5(C)[C@@]4(F)[C@@H](O)C[C@]3(C)[C@]2(C(=O)CO)O1` [Triamcinolone, triamcinolone acetonide, reference compound]: the results for the Curvature in assay [6] (setting [13]) and in assay [6] (before therapy) were 23.15 degrees and 22.69 degrees, respectively. Moreover, the Plaque area in assay [6] (setting [13]) came out at 25.35 mm^2; in assay [6] (before therapy, mean), 25.23 mm^2.
